Test results taken from patent US6342534B1, “Analogs of biologically active, naturally occurring polyamines, pharmaceutical compositions and methods of treatment” (University of Florida Research Foundation, Inc., priority 1986, dated 2002).
Where two headings read alike, the source gives them in different places.

What was measured:
[1] = system: L1210 cells; experiment: Growth inhibition of L1210 cells (IC50 at 48/96 h); format: cell-based; details: Mus musculus
[2] = system: calf thymus DNA; experiment: Displacement of ethidium iodide from calf thymus DNA; format: binding; details: compared with natural polyamines
Excerpt: (§1) If there is any significance to the role of charge interaction in the biological properties of the polyamine analogs, alterations in the polyamine methylene backbone should have significant impact on the compound's biological properties. […] The trifluoroethyl group substantially reduces the pKa of the terminal nitrogens and they are no longer protonated [J. Org. Chem., Vol. 24, “Fluorine containing nitrogen compounds—I Trifluoroethylamines,” Bissel et al, pages 1256-1259 (1959)]. Even though the dimensions of bis-β,β,β-trifluoroethylspermine and diethylspermine are essentially the same, what was once a tetracationic spermine analog is now only a dication. […] The same phenomenon is observed when one acetylates a terminal nitrogen of spermine. The amide nitrogen is not protonated at physiological pH, and the compound has no anti-neoplastic properties and behaves very much like spermidine in displacing ethidium iodide from DNA.

[3] = system: a variety of tumors in cell culture; experiment: Anti-neoplastic activity against tumors in cell culture; format: cell-based
Excerpt: as §1

[4] = cited from earlier work
[5] = Table 1, 48 h, read-out: IC50 (μM) of L1210 cells at 48 h
[6] = Table 1, 96 h, read-out: IC50 (μM) of L1210 cells at 96 h

IC50 [1, 5] | IC50 [1, 6] | Compound | ability to displace ethidium iodide from calf thymus DNA [2] | anti-neoplastic activity [3] | SAT up-regulation (factor) [4]
2 µM | 0.2 µM | C(CCNCC1CCNCC1)CNCC1CCNCC1 | – | – | –
> 100 µM | 90 µM | c1cc(CNCCCCNCc2ccncc2)ccn1 | – | – | –
> 100 µM | 0.25 µM | C(CCNCCC1CCNCC1)CNCCC1CCNCC1 | – | – | –
> 100 µM | > 100 µM | c1cc(CCNCCNCCc2ccncc2)ccn1 | – | – | –
– | – | FC(F)(F)CNCCCNCCCCNCCCNCC(F)(F)F [BTFESPM, bis-β,β,β-trifluoroethylspermine] | behave more like putrescine than spermine | essentially disappears | –
– | – | CCNCCCCNCCCCNCCCCNCC [DEHSPM, diethyl-homospermine] | – | – | little impact on SAT levels
– | – | CCNCCCNCCCNCCCNCC [DENSPM, diethylnorspermine] | – | – | 1,200 fold
– | – | CCNCCCNCCCCNCCCNCC [DESPM, N^1,N^12-diethylspermine] | – | quite active | 200 fold
